pKi: −log10 of the molar value.
Key:
[1] = target: T1, Alpha-1D adrenergic receptor (Homo sapiens, UniProt P25100); assay: Displacement of [125I]HEAT from human Alpha-1D adrenergic receptor expressed in HEK cells; assay type: cell-based, HEK293
T1 sequence (P25100 whole entry): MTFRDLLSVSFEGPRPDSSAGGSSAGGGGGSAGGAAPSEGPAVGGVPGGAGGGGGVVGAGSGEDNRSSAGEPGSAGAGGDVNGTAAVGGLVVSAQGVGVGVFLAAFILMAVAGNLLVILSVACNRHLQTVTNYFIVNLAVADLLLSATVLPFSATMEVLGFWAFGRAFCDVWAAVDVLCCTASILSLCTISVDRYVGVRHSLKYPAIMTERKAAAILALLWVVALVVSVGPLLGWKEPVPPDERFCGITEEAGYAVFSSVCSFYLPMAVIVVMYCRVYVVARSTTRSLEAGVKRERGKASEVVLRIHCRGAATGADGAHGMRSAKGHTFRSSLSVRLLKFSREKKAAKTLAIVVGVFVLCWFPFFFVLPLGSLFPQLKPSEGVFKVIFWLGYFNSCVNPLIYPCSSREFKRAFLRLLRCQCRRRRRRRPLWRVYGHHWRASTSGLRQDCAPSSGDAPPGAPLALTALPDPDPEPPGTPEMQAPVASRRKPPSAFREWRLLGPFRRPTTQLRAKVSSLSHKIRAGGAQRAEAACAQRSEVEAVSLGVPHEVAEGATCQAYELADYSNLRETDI

[2] = target: T2, Alpha-1B adrenergic receptor (Homo sapiens, UniProt P35368); assay: Displacement of [125I]HEAT from human Alpha-1B adrenergic receptor expressed in LM cells; assay type: cell-based
T2 sequence (P35368 whole entry): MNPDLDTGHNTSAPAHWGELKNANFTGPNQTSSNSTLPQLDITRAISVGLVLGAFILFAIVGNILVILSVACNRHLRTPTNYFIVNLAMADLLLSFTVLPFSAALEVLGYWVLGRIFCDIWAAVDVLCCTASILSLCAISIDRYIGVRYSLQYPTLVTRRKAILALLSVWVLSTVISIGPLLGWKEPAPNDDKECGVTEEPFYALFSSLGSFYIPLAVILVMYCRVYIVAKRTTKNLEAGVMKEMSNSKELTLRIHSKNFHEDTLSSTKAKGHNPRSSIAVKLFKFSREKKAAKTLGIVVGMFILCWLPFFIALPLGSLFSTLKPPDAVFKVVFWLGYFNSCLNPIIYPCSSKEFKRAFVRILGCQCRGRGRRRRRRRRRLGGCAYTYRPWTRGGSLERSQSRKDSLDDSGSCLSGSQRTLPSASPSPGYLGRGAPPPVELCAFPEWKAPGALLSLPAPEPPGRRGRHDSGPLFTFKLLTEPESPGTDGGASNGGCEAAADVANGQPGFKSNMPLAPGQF

[3] = species: Mustela putorius furo; assay: In vitro concentration required to increase the effective refractory period (ERP) above baseline was evaluated using isolated ferret papillary muscle preparations; assay type: functional; settings: Muscle tissue
[4] = target: T3, Alpha-1A adrenergic receptor (Homo sapiens, UniProt P35348); assay: Displacement of [125I]HEAT from human Alpha-1C adrenergic receptor expressed in CHO cells; assay type: cell-based
T3 sequence (P35348 whole entry): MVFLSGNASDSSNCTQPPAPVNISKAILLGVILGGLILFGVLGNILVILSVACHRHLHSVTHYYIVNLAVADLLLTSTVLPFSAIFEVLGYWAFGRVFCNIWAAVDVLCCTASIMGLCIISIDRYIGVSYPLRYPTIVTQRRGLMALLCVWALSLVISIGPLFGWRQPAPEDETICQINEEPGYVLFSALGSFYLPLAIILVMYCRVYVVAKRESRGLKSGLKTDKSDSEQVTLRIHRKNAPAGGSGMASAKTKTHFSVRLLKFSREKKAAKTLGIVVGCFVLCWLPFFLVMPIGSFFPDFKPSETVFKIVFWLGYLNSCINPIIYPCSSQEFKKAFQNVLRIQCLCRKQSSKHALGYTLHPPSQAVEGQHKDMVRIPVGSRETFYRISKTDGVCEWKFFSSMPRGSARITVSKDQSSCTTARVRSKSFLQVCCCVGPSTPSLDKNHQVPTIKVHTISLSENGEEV

[5] = target: T4, Alpha-1A adrenergic receptor (Rattus norvegicus, UniProt P43140); assay: Binding affinity against Alpha-1A adrenergic receptor in rat prostatic tissue
T4 sequence (P43140 whole entry): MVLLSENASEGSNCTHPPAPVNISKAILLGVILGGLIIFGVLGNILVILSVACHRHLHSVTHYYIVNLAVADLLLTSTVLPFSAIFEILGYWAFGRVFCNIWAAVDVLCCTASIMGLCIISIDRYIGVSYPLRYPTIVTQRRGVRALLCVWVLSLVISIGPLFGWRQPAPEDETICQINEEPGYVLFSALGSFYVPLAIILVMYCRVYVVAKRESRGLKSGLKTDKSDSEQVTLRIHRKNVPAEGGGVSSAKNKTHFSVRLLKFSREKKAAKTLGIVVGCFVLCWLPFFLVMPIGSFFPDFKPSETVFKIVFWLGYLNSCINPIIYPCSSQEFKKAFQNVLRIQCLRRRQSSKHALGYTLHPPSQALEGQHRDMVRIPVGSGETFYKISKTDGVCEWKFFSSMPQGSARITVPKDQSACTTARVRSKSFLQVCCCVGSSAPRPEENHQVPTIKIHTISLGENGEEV

[6] = target: T3, Alpha-1A adrenergic receptor; assay: Ability to displace [125I]HEAT from cloned human Alpha-1A adrenergic receptor stably expressed in CHO cells; assay type: cell-based
[7] = target: T3, Alpha-1A adrenergic receptor; assay: Binding affinity against Alpha-1A adrenergic receptor in human prostatic tissue

SMILES	pKi [1]	pKi [2]	EC25 [3] [nM]	pKi [4]	pKi [5]	pKi [6]	pKi [7]
CS(=O)(=O)Nc1ccc2c(c1)OC1(CCN(CCc3cccc4ccccc34)CC1)CC2=O	6.87	6.83	9000	7.70			
c1ccc2c(c1)CCC1(CCN(CCc3cccc4ccccc34)CC1)O2	7.00	7.26		7.25			
O=C1CC2(CCN(CCc3ccccn3)CC2)Oc2ccccc21	5.82	5.89	160	6.10			
O=C1CC2(CCN(CCc3cccc4ccccc34)CC2)Oc2ccccc21	7.17	7.32		7.28			
O=C1OC2(CCN(CCc3cccc4ccccc34)CC2)Cc2ccccc21	7.22	6.86		7.35			
C1=CC2(CCN(CCc3cccc4ccccc34)CC2)Oc2ccccc21	6.70	7.28		7.15			
Cc1noc(C)c1S(=O)(=O)Nc1ccc2c(c1)C(=O)CC1(CCN(CCc3cccc4ccccc34)CC1)O2	7.74	7.62	> 30000		8.00	9.16	8.00
CS(=O)(=O)Nc1ccc2c(c1)C(=O)CC1(CCN(CCc3ccccn3)CC1)O2	5.42	< 5.70	33	< 5.70			
Cc1[nH]c2ccccc2c1CCN1CCC2(CC1)CC(=O)c1ccc(NS(C)(=O)=O)cc1O2	6.94	6.66	> 30000	8.10			
COc1ccccc1CCN1CCC2(CC1)CC(=O)c1ccc(NS(C)(=O)=O)cc1O2	7.03	6.76	3800	8.19			
Cn1cnc(S(=O)(=O)Nc2ccc3c(c2)C(=O)CC2(CCN(CCc4cccc5ccccc45)CC2)O3)c1	7.62	7.28	> 30000	8.10			
O=C1CC2(CCN(CCc3cccc4ccccc34)CC2)Oc2ccc(NS(=O)(=O)Cc3ccccc3)cc21	7.28	7.62	> 30000	7.89			
O=C1c2ccccc2CC12CCN(CCc1cccc3ccccc13)CC2	6.83	7.31		7.51			
CS(=O)(=O)Nc1ccc2c(c1)OC1(CCN(CCc3ccccn3)CC1)CC2=O	5.49	< 5.70	6600	5.78			

Reference: ChEMBL document CHEMBL1132031, “4-Oxospiro[benzopyran-2,4'-piperidines] as selective alpha 1a-adrenergic receptor antagonists” (Bioorg Med Chem Lett, 1999)
